From the NIST ThermoML archive (doi:10.1021/je200575c)
Numbers after ± are expanded uncertainties.

Details: Liquid, Vibrating tube method

In the case of `CCCCCCCCCCCCCC` [tetradecane], the mass density (323.2 K, 1050 kPa) is reported as 737 ± 2 kg/m3, the mass density (323.2 K, 2020 kPa) is reported as 742 ± 2 kg/m3 and the mass density (323.2 K, 3160 kPa) is reported as 743 ± 2 kg/m3. The mass density (323.2 K, 4070 kPa) was 744 ± 2 kg/m3, the mass density (323.2 K, 5060 kPa) was 745 ± 2 kg/m3 and the mass density (323.3 K, 5940 kPa) was 745 ± 2 kg/m3. For the same molecule, the mass density (373.4 K, 2080 kPa) was 707 ± 2 kg/m3, the mass density (373.4 K, 4050 kPa) was 709 ± 2 kg/m3 and the mass density (373.4 K, 6010 kPa) was 710 ± 2 kg/m3. The mass density (373.4 K, 7070 kPa) was 711 ± 2 kg/m3, the mass density (373.5 K, 2970 kPa) was 708 ± 2 kg/m3 and the mass density (373.5 K, 5010 kPa) was 710 ± 2 kg/m3. It also gave a mass density (373.6 K, 1010 kPa) of 706 ± 2 kg/m3, a mass density (422.5 K, 1080 kPa) of 672 ± 2 kg/m3 and a mass density (422.5 K, 2140 kPa) of 673 ± 2 kg/m3. It also gave a mass density (422.6 K, 3020 kPa) of 675 ± 2 kg/m3, a mass density (422.6 K, 4020 kPa) of 676 ± 2 kg/m3 and a mass density (422.6 K, 5040 kPa) of 677 ± 2 kg/m3. The mass density (422.6 K, 6050 kPa) was 679 ± 2 kg/m3, the mass density (422.7 K, 7000 kPa) was 680 ± 2 kg/m3 and the mass density (422.7 K, 8000 kPa) was 681 ± 2 kg/m3.
